According to patent US20080176862A1, “New Compounds 617” (ASTRAZENECA AB, priority 2006, published 2008):
Structures can show the parent of a compound that is named as a salt.

The compounds below were run against T1, human β-Secretase (soluble part, AA1-AA460; sBACE-Fc) (Homo sapiens, UniProt P56817) (assay: TR-FRET assay). Conditions: IC50 (nM) in TR-FRET assay, substrate (Europium)CEVNLDAEFK(Qsy7) 100 nM, pH 4.5, 15 min at RT.
T1 construct: The soluble part of the human β-Secretase (AA1-AA460) was cloned into the ASP2-Fc10-1-IRES-GFP-neoK mammalian expression vector; made in house
Type: biochemical
Method: The enzyme used in the IGEN Cleavage-, Fluorescent-, TR-FRET- and BiaCore assays is described as follows:
The soluble part of the human β-Secretase (AA1-AA460) was cloned into the ASP2-Fc10-1-IRES-GFP-neoK mammalian expression vector. The gene was fused to the Fc domain of IgG1 (affinity tag) and stably cloned into HEK 293 cells. Purified sBACE-Fc is stored in Tris buffer, pH 9.2 and has a purity of 95%.
Enzyme was diluted to 6 μg/mL and the substrate (Europium)[…](Qsy7) to 200 nM in reaction buffer (NaAcetate, chaps, triton x-100, EDTA pH 4.5). Compounds were diluted to the desired concentration in dimethyl sulfoxide (final dimethyl sulfoxide concentration in assay is 5%). […] Enzyme (9 μL) and 1 μL of compound in dimethyl sulfoxide was added to the plate, mixed and pre-incubated for 10 min. Substrate (10 μL) was added and the reaction proceeded in the dark for 15 min at RT. The reaction was stopped with the addition of 7 μL NaAcetate, pH 9. The fluorescence of the product was measured on a Victor II plate reader with an excitation wavelength of 340 nm and an emission wavelength of 615 nm. […] The dimethyl sulfoxide control defined the 100% activity level and 0% activity was defined by exclusion of the enzyme (using reaction buffer instead).

T1 sequence (P56817 22-460): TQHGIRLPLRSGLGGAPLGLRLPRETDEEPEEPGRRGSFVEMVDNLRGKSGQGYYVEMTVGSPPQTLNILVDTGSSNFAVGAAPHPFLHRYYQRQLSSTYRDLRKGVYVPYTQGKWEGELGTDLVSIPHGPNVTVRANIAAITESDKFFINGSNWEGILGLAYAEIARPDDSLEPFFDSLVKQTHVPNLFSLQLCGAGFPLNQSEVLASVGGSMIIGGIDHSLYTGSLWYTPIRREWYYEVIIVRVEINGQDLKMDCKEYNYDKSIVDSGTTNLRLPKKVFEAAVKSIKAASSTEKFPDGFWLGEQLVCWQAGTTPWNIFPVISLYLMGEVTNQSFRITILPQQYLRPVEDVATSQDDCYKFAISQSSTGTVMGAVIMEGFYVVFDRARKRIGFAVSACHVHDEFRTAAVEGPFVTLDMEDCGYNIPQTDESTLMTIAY

With `COc1cc(Cl)cc(-c2cc(C3(c4cccc(OS(=O)(=O)C(C)C)c4)N=C(N)N(C)C3=O)ccc2F)c1` (stereo not shown) [Example 107, 3-[2-Amino-4-(3′-chloro-6-fluoro-5′-methoxybiphenyl-3-yl)-1-methyl-5-oxo-4,5-dihydro-1H-imidazol-4-yl]phenyl propane-2-sulfonate] as the compound, how does the IC50 read?
The IC50 was 311 nM.

Same assay, conditions: substrate (Europium)CEVNLDAEFK(Qsy7) 100 nM, pH 4.5, 15 min at RT; read-out: IC50 (nM) in TR-FRET assay

Which IC50 does the source give for `CCCS(=O)(=O)Oc1cccc(C2(c3ccc(F)c(-c4cccc(OC)c4)c3)N=C(N)N(C)C2=O)c1` (stereo not shown) [Example 101, 3-[2-Amino-4-(6-fluoro-3′-methoxybiphenyl-3-yl)-1-methyl-5-oxo-4,5-dihydro-1H-imidazol-4-yl]phenyl propane-1-sulfonate] here?
Its IC50 is 180 nM.

`COc1cc(OS(C)(=O)=O)cc(-c2cccc(C3(c4ccnc(Cl)c4)N=C(N)N(C)C3=O)c2)c1` (stereo not shown) [Example 312, 2-Amino-5-(2-chloropyridin-4-yl)-5-[3-(3-methoxy-5-methylsulfonyloxy-phenyl)phenyl]-3-methyl-imidazol-4-one hydrochloride] was tested. Which IC50 did it give?
The IC50 was 26 nM.

For `CN1C(=O)C(c2cccc(OS(C)(=O)=O)c2)(c2cccc(C3=CCCC3)c2)N=C1N` (stereo not shown) [Example 195, 3-[2-Amino-4-(3-cyclopent-1-en-1-yl-phenyl)-1-methyl-5-oxo-4,5-dihydro-1H-imidazol-4-yl]phenyl methanesulfonate hydrochloride], which IC50 is on record?
The IC50 was 646 nM.

How did the IC50 turn out when `CCc1cc(C2(c3ccc(F)c(-c4cc(Cl)cc(OS(C)(=O)=O)c4)c3)N=C(N)N(C)C2=O)cc(CC)n1` (stereo not shown) [Example 210, 5′-[2-Amino-4-(2,6-diethylpyridin-4-yl)-1-methyl-5-oxo-4,5-dihydro-1H-imidazol-4-yl]-5-chloro-2′-fluorobiphenyl-3-yl methanesulfonate hydrochloride] was run?
Its IC50 is 137 nM.

`COc1cc(OS(C)(=O)=O)cc(-c2cccc(C3(c4cc(C)nc(C)c4)N=C(N)N(C)C3=O)c2)c1` (stereo not shown) [Example 305, 3′-(2-Amino-4-(2,6-dimethylpyridin-4-yl)-1-methyl-5-oxo-4,5-dihydro-1H-imidazo-4-yl)-5-methoxybiphenyl-3-yl methanesulfonate hydrochloride] was tested. Which IC50 did it give?
The IC50 was 101 nM.

For `CCN1C(=O)C(c2ccc(OS(C)(=O)=O)cc2)(c2ccc(F)c(-c3cccc(Cl)c3)c2)N=C1N` (stereo not shown) [Example 164, 4-[2-Amino-4-(3′-chloro-6-fluorobiphenyl-3-yl)-1-ethyl-5-oxo-4,5-dihydro-1H-imidazol-4-yl]phenyl methanesulfonate], which IC50 is on record?
The IC50 was 912 nM.

Which IC50 does the source give for `COc1ccnc(-c2cc(C3(c4cccc(OS(C)(=O)=O)c4)N=C(N)N(C)C3=O)ccc2F)n1` (stereo not shown) [Example 7, 3-{2-Amino-4-[4-fluoro-3-(4-methoxypyrimidin-2-yl)phenyl]-1-methyl-5-oxo-4,5-dihydro-1H-imidazol-4-yl}phenyl methanesulfonate 0.5 acetate] here?
The IC50 was 1200 nM.

For `CN1C(=O)C(c2cccc(OS(=O)(=O)N(C)C)c2)(c2ccc(F)c(-c3cccnc3)c2)N=C1N` (stereo not shown) [Example 111, 3-[2-Amino-4-(4-fluoro-3-pyridin-3-ylphenyl)-1-methyl-5-oxo-4,5-dihydro-1H-imidazol-4-yl]phenyldimethylsulfamate], which IC50 is on record?
Its IC50 is 93 nM.

How did the IC50 turn out when `CCCS(=O)(=O)Oc1cccc(C2(c3ccc(F)c(-c4cccnc4F)c3)N=C(N)N(C)C2=O)c1` (stereo not shown) [Example 96, 3-{2-Amino-4-[4-fluoro-3-(2-fluoropyridin-3-yl)phenyl]-1-methyl-5-oxo-4,5-dihydro-1H-imidazol-4-yl}phenyl propane-1-sulfonate] was run?
The IC50 was 242 nM.

Which IC50 does the source give for `CC(C)S(=O)(=O)Oc1cccc(C2(c3ccc(F)c(-c4cccnc4F)c3)N=C(N)N(C)C2=O)c1` (stereo not shown) [Example 104, 3-{2-Amino-4-[4-fluoro-3-(2-fluoropyridin-3-yl)phenyl]-1-methyl-5-oxo-4,5-dihydro-1H-imidazol-4-yl}phenyl propane-2-sulfonate] here?
The IC50 was 186 nM.

Which IC50 does the source give for `COc1ccc(OC)c(S(=O)(=O)Oc2ccc(C3(c4ccc(F)c(-c5cncnc5)c4)N=C(N)N(C)C3=O)cc2)c1` (stereo not shown) [Example 277, 4-[2-Amino-4-(4-fluoro-3-pyrimidin-5-ylphenyl)-1-methyl-5-oxo-4,5-dihydro-1H-imidazol-4-yl]phenyl 2,5-dimethoxybenzenesulfonate] here?
The IC50 was 183 nM.

`COc1ccc(C2(c3cccc(-c4cc(OC)cc(OS(C)(=O)=O)c4)c3)N=C(N)N(C)C2=O)cc1` (stereo not shown) [Example 57, 3′-[2-Amino-4-(4-methoxyphenyl)-1-methyl-5-oxo-4,5-dihydro-1H-imidazol-4-yl]-5-methoxybiphenyl-3-yl methanesulfonate] was tested. Which IC50 did it give?
Its IC50 is 34 nM.

With `CN1C(=O)C(c2cccc(OS(=O)(=O)c3ccccn3)c2)(c2ccc(F)c(Br)c2)N=C1N` (stereo not shown) [Example 226, 3-[2-Amino-4-(3-bromo-4-fluorophenyl)-1-methyl-5-oxo-4,5-dihydro-1H-imidazol-4-yl]phenyl pyridine-2-sulfonate] as the compound, how does the IC50 read?
Its IC50 is 859 nM.

With `CN1C(=O)C(c2ccc(OS(C)(=O)=O)cc2)(c2ccnc(-c3cccnc3F)c2)N=C1N` (stereo not shown) [Example 29, 4-[2-Amino-4-(2′-fluoro-2,3′-bipyridin-4-yl)-1-methyl-5-oxo-4,5-dihydro-1H-imidazol-4-yl]phenyl methanesulfonate 0.25 acetate] as the compound, how does the IC50 read?
Its IC50 is 387 nM.

For `CN1C(=O)C(c2cccc(OS(C)(=O)=O)c2)(c2ccc(F)c(-c3cccnc3)c2)N=C1N` (stereo not shown) [Example 90, 3-[2-Amino-4-(4-fluoro-3-pyridin-3-ylphenyl)-1-methyl-5-oxo-4,5-dihydro-1H-imidazol-4-yl]phenylmethanesulfonate], which IC50 is on record?
Its IC50 is 385 nM.

`COc1cc(OS(C)(=O)=O)cc(-c2cc(C3(c4ccc(OC(F)F)cc4)N=C(N)N(C)C3=O)ccc2F)c1` (stereo not shown) [Example 69, 5′-{2-Amino-4-[4-(difluoromethoxy)phenyl]-1-methyl-5-oxo-4,5-dihydro-1H-imidazol-4-yl}-2′-fluoro-5-methoxybiphenyl-3-yl methanesulfonate hydrochloride] was tested. Which IC50 did it give?
The IC50 was 23 nM.

For `Cc1nn(C)c(Cl)c1S(=O)(=O)Oc1cccc(C2(c3ccc(F)c(Br)c3)N=C(N)N(C)C2=O)c1` (stereo not shown) [Example 230, 3-[2-Amino-4-(3-bromo-4-fluorophenyl)-1-methyl-5-oxo-4,5-dihydro-1H-imidazol-4-yl]phenyl 5-chloro-1,3-dimethyl-1H-pyrazole-4-sulfonate], which IC50 is on record?
Its IC50 is 129 nM.

`CN1C(=O)C(c2ccc(OS(C)(=O)=O)cc2)(c2ccc(F)c(C3CCCCC3)c2)N=C1N` (stereo not shown) [Example 300, 4-[2-Amino-4-(3-cyclohexyl-4-fluorophenyl)-1-methyl-5-oxo-4,5-dihydro-1H-imidazol-4-yl]phenyl methanesulfonate 0.5 acetate] was tested. Which IC50 did it give?
Its IC50 is 410 nM.

Which IC50 does the source give for `CCCS(=O)(=O)Oc1cccc(C2(c3ccc(F)c(-c4cncnc4)c3)N=C(N)N(C)C2=O)c1` (stereo not shown) [Example 102, 3-[2-Amino-4-(4-fluoro-3-pyrimidin-5-ylphenyl)-1-methyl-5-oxo-4,5-dihydro-1H-imidazol-4-yl]phenyl propane-1-sulfonate] here?
The IC50 was 321 nM.

Which IC50 does the source give for `CN1C(=O)C(c2cccc(OS(=O)(=O)c3c(Cl)nc4sccn34)c2)(c2ccc(F)c(Br)c2)N=C1N` (stereo not shown) [Example 233, 3-[2-Amino-4-(3-bromo-4-fluorophenyl)-1-methyl-5-oxo-4,5-dihydro-1H-imidazol-4-yl]phenyl 6-chloroimidazo[2,1-b][1,3]thiazole-5-sulfonate] here?
The IC50 was 321 nM.

For `CC(C)S(=O)(=O)Oc1cccc(C2(c3ccc(F)c(-c4cc(Cl)cc(Cl)c4)c3)N=C(N)N(C)C2=O)c1` (stereo not shown) [Example 109, 3-[2-Amino-4-(3′,5′-dichloro-6-fluorobiphenyl-3-yl)-1-methyl-5-oxo-4,5-dihydro-1H-imidazol-4-yl]phenyl propane-2-sulfonate], which IC50 is on record?
Its IC50 is 263 nM.
